Laboratory results as given in PubChem BioAssay AID1963973 (Molecular Pharmacology Branch, DTP, NCI, 2024).
One block for each compound: values may come before it.

Tested on: 883617-216-R-J1-PDC tumor spheroids, viability
Test: Anticancer human tumor 883617-216-R-J1-PDC patient-derived bladder carcinoma cell line growth inhibition [PI3K]
Conditions: spheroids with HUVEC and MSC; for IC50: curve of first compound; for viability, T/C: stronger effect = lower value
How it was run: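 Complex 3D spheroids (cancer cells + endothelial HUVEC + mesenchymal stem cells); drug pairs of targeted agent x inavolisib/alpelisib/duvelisib/copanlisib; half-log series from ~Cmax, max 10 microM if Cmax unknown; endpoint viability.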
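Also: spheroids exposed to agents for 7 days before the viability read.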

IC50 (second compound 0.0316 µM): 49.5 nM
IC50 (second compound 0.1 µM): 22.4 nM
IC50 (second compound 0.316 µM): < 9.49 nM
IC50 (second compound 1 µM): < 9.49 nM
IC50 (second compound 3.16 µM): < 9.49 nM
IC50 (second compound 10 µM): < 9.49 nM
SMILES: Cn1cnc2c(F)c(Nc3ccc(Br)cc3Cl)c(C(=O)NOCCO)cc21 + Cc1nc(NC(=O)N2CCCC2C(N)=O)sc1-c1ccnc(C(C)(C)C(F)(F)F)c1
viability, T/C (second compound 0.0316 µM, first compound 0.00949 µM): 64.4%
viability, T/C (second compound 0.0316 µM, first compound 0.03 µM): 48.8%
viability, T/C (second compound 0.0316 µM, first compound 0.0949 µM): 41.5%
viability, T/C (second compound 0.0316 µM, first compound 0.3 µM): 44.2%
viability, T/C (second compound 0.0316 µM, first compound 0.949 µM): 30.8%
viability, T/C (second compound 0.0316 µM, first compound 3 µM): 19.5%
viability, T/C (second compound 0.1 µM, first compound 0.00949 µM): 62.3%
viability, T/C (second compound 0.1 µM, first compound 0.03 µM): 45.1%
viability, T/C (second compound 0.1 µM, first compound 0.0949 µM): 33.5%
viability, T/C (second compound 0.1 µM, first compound 0.3 µM): 27.7%
viability, T/C (second compound 0.1 µM, first compound 0.949 µM): 23.2%
viability, T/C (second compound 0.1 µM, first compound 3 µM): 15.9%
viability, T/C (second compound 0.316 µM, first compound 0.00949 µM): 41.4%
viability, T/C (second compound 0.316 µM, first compound 0.03 µM): 27.9%
viability, T/C (second compound 0.316 µM, first compound 0.0949 µM): 25.8%
viability, T/C (second compound 0.316 µM, first compound 0.3 µM): 20.7%
viability, T/C (second compound 0.316 µM, first compound 0.949 µM): 16.8%
viability, T/C (second compound 0.316 µM, first compound 3 µM): 9.49%
viability, T/C (second compound 1 µM, first compound 0.00949 µM): 18.6%
viability, T/C (second compound 1 µM, first compound 0.03 µM): 19%
viability, T/C (second compound 1 µM, first compound 0.0949 µM): 15.9%
viability, T/C (second compound 1 µM, first compound 0.3 µM): 14%
viability, T/C (second compound 1 µM, first compound 0.949 µM): 11.9%
viability, T/C (second compound 1 µM, first compound 3 µM): 4.92%
viability, T/C (second compound 3.16 µM, first compound 0.00949 µM): 11.2%
viability, T/C (second compound 3.16 µM, first compound 0.03 µM): 8.7%
viability, T/C (second compound 3.16 µM, first compound 0.0949 µM): 10.1%
viability, T/C (second compound 3.16 µM, first compound 0.3 µM): 7.89%
viability, T/C (second compound 3.16 µM, first compound 0.949 µM): 4.92%
viability, T/C (second compound 3.16 µM, first compound 3 µM): 2.19%
viability, T/C (second compound 10 µM, first compound 0.00949 µM): 4.41%
viability, T/C (second compound 10 µM, first compound 0.03 µM): 3.98%
viability, T/C (second compound 10 µM, first compound 0.0949 µM): 3.69%
viability, T/C (second compound 10 µM, first compound 0.3 µM): 3.12%
viability, T/C (second compound 10 µM, first compound 0.949 µM): 2.43%
viability, T/C (second compound 10 µM, first compound 3 µM): 1.07%

IC50 (second compound 0.0316 µM): 249 nM
IC50 (second compound 0.1 µM): 236 nM
IC50 (second compound 0.316 µM): < 31.6 nM
IC50 (second compound 1 µM): < 31.6 nM
IC50 (second compound 3.16 µM): < 31.6 nM
IC50 (second compound 10 µM): < 31.6 nM
SMILES: Cn1ncc(Cl)c1-c1cc(C(=O)NC(CN)Cc2cccc(F)c2)sc1Cl (centres undefined) + Cc1nc(NC(=O)N2CCCC2C(N)=O)sc1-c1ccnc(C(C)(C)C(F)(F)F)c1
viability, T/C (second compound 0.0316 µM, first compound 0.0316 µM): 88.3%
viability, T/C (second compound 0.0316 µM, first compound 0.1 µM): 67.7%
viability, T/C (second compound 0.0316 µM, first compound 0.316 µM): 45.5%
viability, T/C (second compound 0.0316 µM, first compound 1 µM): 26.1%
viability, T/C (second compound 0.0316 µM, first compound 3.16 µM): 11.8%
viability, T/C (second compound 0.0316 µM, first compound 10 µM): 5.02%
viability, T/C (second compound 0.1 µM, first compound 0.0316 µM): 75%
viability, T/C (second compound 0.1 µM, first compound 0.1 µM): 67.1%
viability, T/C (second compound 0.1 µM, first compound 0.316 µM): 42.7%
viability, T/C (second compound 0.1 µM, first compound 1 µM): 25%
viability, T/C (second compound 0.1 µM, first compound 3.16 µM): 11.1%
viability, T/C (second compound 0.1 µM, first compound 10 µM): 4.24%
viability, T/C (second compound 0.316 µM, first compound 0.0316 µM): 42.6%
viability, T/C (second compound 0.316 µM, first compound 0.1 µM): 41.6%
viability, T/C (second compound 0.316 µM, first compound 0.316 µM): 34.4%
viability, T/C (second compound 0.316 µM, first compound 1 µM): 18.6%
viability, T/C (second compound 0.316 µM, first compound 3.16 µM): 8.47%
viability, T/C (second compound 0.316 µM, first compound 10 µM): 2.6%
viability, T/C (second compound 1 µM, first compound 0.0316 µM): 29.2%
viability, T/C (second compound 1 µM, first compound 0.1 µM): 30.8%
viability, T/C (second compound 1 µM, first compound 0.316 µM): 20.7%
viability, T/C (second compound 1 µM, first compound 1 µM): 13.9%
viability, T/C (second compound 1 µM, first compound 3.16 µM): 7.58%
viability, T/C (second compound 1 µM, first compound 10 µM): 2.44%
viability, T/C (second compound 3.16 µM, first compound 0.0316 µM): 15.4%
viability, T/C (second compound 3.16 µM, first compound 0.1 µM): 13.4%
viability, T/C (second compound 3.16 µM, first compound 0.316 µM): 12.4%
viability, T/C (second compound 3.16 µM, first compound 1 µM): 8.34%
viability, T/C (second compound 3.16 µM, first compound 3.16 µM): 5.31%
viability, T/C (second compound 3.16 µM, first compound 10 µM): 1.74%
viability, T/C (second compound 10 µM, first compound 0.0316 µM): 9.56%
viability, T/C (second compound 10 µM, first compound 0.1 µM): 7.78%
viability, T/C (second compound 10 µM, first compound 0.316 µM): 5.02%
viability, T/C (second compound 10 µM, first compound 1 µM): 5.6%
viability, T/C (second compound 10 µM, first compound 3.16 µM): 3.31%
viability, T/C (second compound 10 µM, first compound 10 µM): 0.93%
